According to patent publication US20250129430A1, “HIGH ATP-AFFINITY PROTEIN AS THERAPEUTIC TARGET FOR INTRACTABLE CANCER MOLECULAR SUBTYPES AND INHIBITOR THEREOF” (VeraVerse Co., Ltd., priority 2021, published 2025):

Experiments:
Test in all cases: Cell viability drug screen, 12-point dose-response AUC
Format in all cases: cell-based, human
YCC2 = YCC2 cells; 72 hours
Procedure: (§1) An FDA-approved small-molecule pharmacological compound (#L1300) and an anticancer compound for research (#L2000) were purchased from Selecckchem and a 10 mM solution was prepared in DMSO. A total of 1,345 compounds were tested the cell viability of the seven EMT gastric cancer cell lines.
(§2) Cells cultured for cell-based drug assay were inoculated into a 96-well white optical plate (Corning) at 5×10^3 cells per well. After 24 hours after inoculation, a 2.5 MJT (primary screen) or a half-log 12-serial diluent (secondary screen) of the pharmacological compound contained in DMSO is added to the cells with a robot using a BioMek FXp liquid processor (Beckman) to add to the cells at 50 mM. The final drug concentration in the 5 ns range and the DMSO specification control (0.5%) were calculated. The cells were then further incubated at 37° C. in a 5% CO2 incubator for 72 hours prior to measuring cell viability using the extra-GLO assay kit (Promega). The luminescent properties were measured after 15 min incubation at room temperature using a plate stacker equipped with a plate stacker. The normalized viability for the DMSO-based control was measured to generate a cell line-specific 12-point dose-response curve for each pharmacological compound, and then the area under the curve (AUC) was calculated using a trapezoidal method. […] The results of the repeated experiments were averaged to generate AUC values for each cell line for each compound.

SNU638 = SNU638 cells; 72 hours
Procedure: as §1, §2

MKN28 = MKN28 cells; 72 hours
Procedure: as §1, §2

SNU601 = SNU601 cells; 72 hours
Procedure: as §1, §2

NCC24 = NCC24 cells; 72 hours
Procedure: as §1, §2

NCI_N87 = NCI_N87 cells; 72 hours
Procedure: as §1, §2

MKN1 = MKN1 cells; 72 hours
Procedure: as §1, §2

SNU668 = SNU668 cells (SEM subtype); 72 hours
Procedure: as §1, §2

SNU484 = SNU484 cells (SEM subtype); 72 hours
Procedure: as §1, §2

AGS = AGS cells (non-SEM subtype); 72 hours
Procedure: as §1, §2

SNU1967 = SNU1967 cells; 72 hours
Procedure: as §1, §2

NCC20 = NCC20 cells; 72 hours
Procedure: as §1, §2

MKN74 = MKN74 cells; 72 hours
Procedure: as §1, §2

SNU216 = SNU216 cells (non-SEM subtype); 72 hours
Procedure: as §1, §2

SNU719 = SNU719 cells; 72 hours
Procedure: as §1, §2

SNU1750 = SNU1750 cells (SEM subtype); 72 hours
Procedure: as §1, §2

Hs746T = Hs746T cells (SEM subtype); 72 hours
Procedure: as §1, §2

YCC3 = YCC3 cells; 72 hours
Procedure: as §1, §2

MKN45 = MKN45 cells (non-SEM subtype); 72 hours
Procedure: as §1, §2

SK4 = SK4 cells (SEM subtype); 72 hours
Procedure: as §1, §2

SNU16 = SNU16 cells; 72 hours
Procedure: as §1, §2

NCC19 = NCC19 cells; 72 hours
Procedure: as §1, §2

NCC59 = NCC59 cells; 72 hours
Procedure: as §1, §2

KATO3 = KATO3 cells; 72 hours
Procedure: as §1, §2

OCUM1 = OCUM1 cells; 72 hours
Procedure: as §1, §2

YCC11 = YCC11 cells (SEM subtype); 72 hours
Procedure: as §1, §2

SNU1 = SNU1 cells; 72 hours
Procedure: as §1, §2

SNU620 = SNU620 cells; 72 hours
Procedure: as §1, §2

FU97 = system: FU97; parameters: Average Area Under the Viability Curve (AUC), AUC norm value: scale not given here; details: FU97 cells; 72 hours
Procedure: Cells cultured for cell-based drug assay were inoculated into a 96-well white optical plate (Corning) at 5×10^3 cells per well. After 24 hours after inoculation, a 2.5 MJT (primary screen) or a half-log 12-serial diluent (secondary screen) of the pharmacological compound contained in DMSO is added to the cells with a robot using a BioMek FXp liquid processor (Beckman) to add to the cells at 50 mM. The final drug concentration in the 5 ns range and the DMSO specification control (0.5%) were calculated. The cells were then further incubated at 37° C. in a 5% CO2 incubator for 72 hours prior to measuring cell viability using the extra-GLO assay kit (Promega). The luminescent properties were measured after 15 min incubation at room temperature using a plate stacker equipped with a plate stacker. The normalized viability for the DMSO-based control was measured to generate a cell line-specific 12-point dose-response curve for each pharmacological compound, and then the area under the curve (AUC) was calculated using a trapezoidal method.

Structure (SMILES) | Average Area Under the Viability Curve (AUC), AUC norm value (YCC2) | Average Area Under the Viability Curve (AUC), AUC norm value (SNU638) | Average Area Under the Viability Curve (AUC), AUC norm value (MKN28) | Average Area Under the Viability Curve (AUC), AUC norm value (SNU601) | Average Area Under the Viability Curve (AUC), AUC norm value (NCC24) | Average Area Under the Viability Curve (AUC), AUC norm value (NCI_N87) | Average Area Under the Viability Curve (AUC), AUC norm value (MKN1) | Average Area Under the Viability Curve (AUC), AUC norm value (SNU668) | Average Area Under the Viability Curve (AUC), AUC norm value (SNU484) | Average Area Under the Viability Curve (AUC), AUC norm value (AGS) | Average Area Under the Viability Curve (AUC), AUC norm value (SNU1967) | Average Area Under the Viability Curve (AUC), AUC norm value (NCC20) | Average Area Under the Viability Curve (AUC), AUC norm value (MKN74) | Average Area Under the Viability Curve (AUC), AUC norm value (SNU216) | Average Area Under the Viability Curve (AUC), AUC norm value (SNU719) | Average Area Under the Viability Curve (AUC), AUC norm value (SNU1750) | Average Area Under the Viability Curve (AUC), AUC norm value (Hs746T) | Average Area Under the Viability Curve (AUC), AUC norm value (YCC3) | Average Area Under the Viability Curve (AUC), AUC norm value (MKN45) | Average Area Under the Viability Curve (AUC), AUC norm value (SK4) | also measured
CC(C)[C@H](C(=O)Nc1ccc(C(=O)NO)cc1)c1ccccc1 [AR-42 (HDAC-42), AR-42] | −0.00569 | −0.7804 | 0.07777 | 1.874 | −0.6217 | −0.1344 | 0.9532 | 0.2515 | 0.127 | −1.186 | −0.9137 | 0.06736 | 0.1789 | 0 | 2.169 | −1.401 | 0.3259 | 0.6875 | 1.962 | −0.3617 | Average Area Under the Viability Curve (AUC), AUC norm value (SNU16): −1.427; Average Area Under the Viability Curve (AUC), AUC norm value (NCC19): 1.026; Average Area Under the Viability Curve (AUC), AUC norm value (NCC59): 2.102; Average Area Under the Viability Curve (AUC), AUC norm value (KATO3): 0.7324; Average Area Under the Viability Curve (AUC), AUC norm value (OCUM1): −0.3936; Average Area Under the Viability Curve (AUC), AUC norm value (YCC11): −0.3298; Average Area Under the Viability Curve (AUC), AUC norm value (SNU1): −0.3147; Average Area Under the Viability Curve (AUC), AUC norm value (SNU620): −1.197; Average Area Under the Viability Curve (AUC), AUC norm value (FU97): −1.358
NC(=O)Nc1cc(-c2cccc(F)c2)sc1C(=O)N[C@H]1CCCNC1 [AZD7762] | 0.451 | 1.404 | −0.3131 | −0.957 | 1.107 | 0.8405 | −0.01906 | 1.537 | 0 | −0.4403 | −0.3626 | −0.4167 | −0.4773 | 0.7004 | 3.771 | −0.9031 | 1.376 | 1.638 | −0.3384 | −0.9696 | Average Area Under the Viability Curve (AUC), AUC norm value (SNU16): −1.119; Average Area Under the Viability Curve (AUC), AUC norm value (NCC19): 2.796; Average Area Under the Viability Curve (AUC), AUC norm value (NCC59): 2.107; Average Area Under the Viability Curve (AUC), AUC norm value (KATO3): 2.891; Average Area Under the Viability Curve (AUC), AUC norm value (OCUM1): 0.511; Average Area Under the Viability Curve (AUC), AUC norm value (YCC11): −0.9757; Average Area Under the Viability Curve (AUC), AUC norm value (SNU1): −0.2026; Average Area Under the Viability Curve (AUC), AUC norm value (SNU620): 0.2258; Average Area Under the Viability Curve (AUC), AUC norm value (FU97): −0.7616
